Assay results: ChEMBL document CHEMBL4020788, “Synthesis, SAR and molecular docking studies of benzo[d]thiazole-hydrazones as potential antibacterial and antifungal agents” (2017)
Activity calls are given as the source filed them. No cut-off for these calls is given here.

Experiments:
Assay type in all cases: functional
Fusarium verticillioides [1] = test: Antifungal activity against Fusarium moniliforme at 100 ug/ml after 48 hrs by agar well diffusion method; conditions: read-out: DIZ
Escherichia coli [2] = test: Antibacterial activity against Escherichia coli at 50 ug/ml after 24 hrs by agar well diffusion method
Aspergillus niger [3] = test: Antifungal activity against Aspergillus niger at 50 ug/ml after 48 hrs by agar well diffusion method
Staphylococcus aureus [4] = test: Antibacterial activity against methicillin resistant Staphylococcus aureus MRSA090 at 75 ug/ml after 24 hrs by agar well diffusion method; conditions: MRSA090, 24 h, read-out: DIZ
Bacillus subtilis [5] = test: Antibacterial activity against Bacillus subtilis at 100 ug/ml after 24 hrs by agar well diffusion method
Fusarium oxysporum [6] = test: Antifungal activity against Fusarium oxysporum at 50 ug/ml after 48 hrs by agar well diffusion method; conditions: read-out: DIZ
Staphylococcus aureus [7] = test: Antibacterial activity against Staphylococcus aureus at 50 ug/ml after 24 hrs by agar well diffusion method
Fusarium verticillioides [8] = test: Antifungal activity against Fusarium moniliforme at 50 ug/ml after 48 hrs by agar well diffusion method; conditions: read-out: DIZ
Klebsiella pneumoniae [9] = test: Antibacterial activity against Klebsiella pneumoniae at 50 ug/ml after 24 hrs by agar well diffusion method; conditions: read-out: DIZ
Bacillus subtilis [10] = test: Antibacterial activity against Bacillus subtilis at 75 ug/ml after 24 hrs by agar well diffusion method
Aspergillus niger [11] = test: Antifungal activity against Aspergillus niger at 75 ug/ml after 48 hrs by agar well diffusion method
Escherichia coli [12] = test: Antibacterial activity against Escherichia coli at 25 ug/ml after 24 hrs by agar well diffusion method
Fusarium verticillioides [13] = test: Antifungal activity against Fusarium moniliforme at 75 ug/ml after 48 hrs by agar well diffusion method; conditions: read-out: DIZ
Klebsiella pneumoniae [14] = test: Antibacterial activity against Klebsiella pneumoniae at 100 ug/ml after 24 hrs by agar well diffusion method; conditions: read-out: DIZ
Staphylococcus aureus [15] = test: Antibacterial activity against Staphylococcus aureus at 100 ug/ml after 24 hrs by agar well diffusion method
Fusarium verticillioides [16] = test: Antifungal activity against Fusarium moniliforme at 25 ug/ml after 48 hrs by agar well diffusion method; conditions: read-out: DIZ
Aspergillus niger [17] = test: Antifungal activity against Aspergillus niger at 100 ug/ml after 48 hrs by agar well diffusion method
Staphylococcus aureus [18] = test: Antibacterial activity against methicillin resistant Staphylococcus aureus MRSA090 at 25 ug/ml after 24 hrs by agar well diffusion method; conditions: MRSA090, 24 h, read-out: DIZ
Klebsiella pneumoniae [19] = test: Antibacterial activity against Klebsiella pneumoniae at 75 ug/ml after 24 hrs by agar well diffusion method; conditions: read-out: DIZ
Fusarium oxysporum [20] = test: Antifungal activity against Fusarium oxysporum at 75 ug/ml after 48 hrs by agar well diffusion method; conditions: read-out: DIZ
Klebsiella pneumoniae [21] = test: Antibacterial activity against Klebsiella pneumoniae at 25 ug/ml after 24 hrs by agar well diffusion method; conditions: read-out: DIZ
Aspergillus niger [22] = test: Antifungal activity against Aspergillus niger at 25 ug/ml after 48 hrs by agar well diffusion method
Staphylococcus aureus [23] = test: Antibacterial activity against Staphylococcus aureus at 25 ug/ml after 24 hrs by agar well diffusion method
Bacillus subtilis [24] = test: Antibacterial activity against Bacillus subtilis at 25 ug/ml after 24 hrs by agar well diffusion method
Escherichia coli [25] = test: Antibacterial activity against Escherichia coli at 75 ug/ml after 24 hrs by agar well diffusion method
Fusarium oxysporum [26] = test: Antifungal activity against Fusarium oxysporum at 25 ug/ml after 48 hrs by agar well diffusion method
Bacillus subtilis [27] = test: Antibacterial activity against Bacillus subtilis at 50 ug/ml after 24 hrs by agar well diffusion method
Staphylococcus aureus [28] = test: Antibacterial activity against Staphylococcus aureus at 75 ug/ml after 24 hrs by agar well diffusion method
Fusarium oxysporum [29] = test: Antifungal activity against Fusarium oxysporum at 100 ug/ml after 48 hrs by agar well diffusion method; conditions: read-out: DIZ
Escherichia coli [30] = test: Antibacterial activity against Escherichia coli at 100 ug/ml after 24 hrs by agar well diffusion method
Staphylococcus aureus [31] = test: Antibacterial activity against methicillin resistant Staphylococcus aureus MRSA090 at 100 ug/ml after 24 hrs by agar well diffusion method; conditions: MRSA090, 24 h, read-out: DIZ
Staphylococcus aureus [32] = test: Antibacterial activity against methicillin resistant Staphylococcus aureus MRSA090 at 50 ug/ml after 24 hrs by agar well diffusion method; conditions: MRSA090, 24 h, read-out: DIZ

Row | Compound | zone of inhibition at 100 µg/mL (Fusarium verticillioides [1]) [mm] | zone of inhibition at 75 µg/mL (Staphylococcus aureus [4]) [mm] | diameter of the inhibition zone (DIZ) (Bacillus subtilis [5]) | zone of inhibition at 50 µg/mL (Fusarium oxysporum [6]) [mm] | zone of inhibition at 50 µg/mL (Fusarium verticillioides [8]) [mm] | zone of inhibition at 50 µg/mL (Klebsiella pneumoniae [9]) [mm] | diameter of the inhibition zone (DIZ) (Bacillus subtilis [10]) | zone of inhibition at 75 µg/mL (Fusarium verticillioides [13]) [mm] | zone of inhibition at 100 µg/mL (Klebsiella pneumoniae [14]) [mm] | zone of inhibition at 25 µg/mL (Fusarium verticillioides [16]) [mm] | zone of inhibition at 25 µg/mL (Staphylococcus aureus [18]) [mm] | zone of inhibition at 75 µg/mL (Klebsiella pneumoniae [19]) [mm] | zone of inhibition at 75 µg/mL (Fusarium oxysporum [20]) [mm] | zone of inhibition at 25 µg/mL (Klebsiella pneumoniae [21]) [mm] | diameter of the inhibition zone (DIZ) (Bacillus subtilis [24]) | diameter of the inhibition zone (DIZ) (Bacillus subtilis [27]) | zone of inhibition at 100 µg/mL (Fusarium oxysporum [29]) [mm] | zone of inhibition at 100 µg/mL (Staphylococcus aureus [31]) [mm] | zone of inhibition at 50 µg/mL (Staphylococcus aureus [32]) [mm] | further results
1 | COc1cc(/C=N/Nc2nc3cccc(C)c3s2)ccc1OCc1ccccc1 | 20 | 12 | inactive | 5 | 9 | 12 | inactive | 15 | 17 | 4 | 5 | 14 | 9 | 7 | inactive | inactive | 14 | 14 | 10 | diameter of the inhibition zone (DIZ) (Escherichia coli [2]): inactive; diameter of the inhibition zone (DIZ) (Aspergillus niger [3]): inactive; zone of inhibition at 50 µg/mL (Staphylococcus aureus [7]; read-out: DIZ): 11 mm; diameter of the inhibition zone (DIZ) (Aspergillus niger [11]): inactive; diameter of the inhibition zone (DIZ) (Escherichia coli [12]): inactive; zone of inhibition at 100 µg/mL (Staphylococcus aureus [15]; read-out: DIZ): 18 mm; diameter of the inhibition zone (DIZ) (Aspergillus niger [17]): inactive; diameter of the inhibition zone (DIZ) (Aspergillus niger [22]): inactive; zone of inhibition at 25 µg/mL (Staphylococcus aureus [23]; read-out: DIZ): 7 mm; diameter of the inhibition zone (DIZ) (Escherichia coli [25]): inactive; diameter of the inhibition zone (DIZ) (Fusarium oxysporum [26]): inactive; zone of inhibition at 75 µg/mL (Staphylococcus aureus [28]; read-out: DIZ): 14 mm; diameter of the inhibition zone (DIZ) (Escherichia coli [30]): inactive
2 | Cc1cccc2nc(N/N=C/c3ccco3)sc12 | 21 | 13 | inactive | 10 | 13 | 16 | inactive | 18 | 24 | 10 | 5 | 21 | 14 | 11 | inactive | inactive | 18 | 16 | 9 | zone of inhibition at 50 µg/mL (Escherichia coli [2]; read-out: DIZ): 9 mm; zone of inhibition at 50 µg/mL (Aspergillus niger [3]; read-out: DIZ): 13 mm; diameter of the inhibition zone (DIZ) (Staphylococcus aureus [7]): inactive; zone of inhibition at 75 µg/mL (Aspergillus niger [11]; read-out: DIZ): 17 mm; zone of inhibition at 25 µg/mL (Escherichia coli [12]; read-out: DIZ): 4 mm; diameter of the inhibition zone (DIZ) (Staphylococcus aureus [15]): inactive; zone of inhibition at 100 µg/mL (Aspergillus niger [17]; read-out: DIZ): 22 mm; zone of inhibition at 25 µg/mL (Aspergillus niger [22]; read-out: DIZ): 10 mm; diameter of the inhibition zone (DIZ) (Staphylococcus aureus [23]): inactive; zone of inhibition at 75 µg/mL (Escherichia coli [25]; read-out: DIZ): 13 mm; zone of inhibition at 25 µg/mL (Fusarium oxysporum [26]; read-out: DIZ): 4 mm; diameter of the inhibition zone (DIZ) (Staphylococcus aureus [28]): inactive; zone of inhibition at 100 µg/mL (Escherichia coli [30]; read-out: DIZ): 17 mm
